# Experimental data taken from US5446157A, “Boron difluoride compounds useful in photodynamic therapy and production of laser light” (priority 1993, dated 1995).
# Counter-ions that a name gives are not always drawn.
# What was measured:
# [1] = Triplet-triplet (T--T) absorption; type: physicochemical; conditions: fluorescent spectral area
# Protocol: The T--T absorption spectrum was recorded at 77K, employing a 1×10^-4 molar solution of 2-methyltetrahydrofuran as solvent.
# [2] = P-BF2 dyes dispersed in acrylic co-polymer (solid-state laser)
# From the text: Any laser dye of the present invention may be substituted for the dye in any of the examples of that incorporated patent. The matrix generally includes solid polymeric host laser rods prepared using bulk polymerization of acrylic acid ester comonomers.
# [3] = Photostability under irradiation with 250 watt sun lamp; type: physicochemical; conditions: sun lamp, in M-1cm-1 (unit assumed)
# Protocol: In addition, experiments were conducted in order to determine the photostability of the product of Example I. A solution was prepared by mixing 0.1 g of the product with 50 ml of dichloromethane solvent. The solution was placed in a 100 ml round bottom flask and irradiated with light from a sun lamp (250 watts at a distance of approximately 8 inches from the flask). […] However, another solution was made by combining 0.1 g of product in 250 ml of CH3 OH and 10 ml of CH2 Cl2. Addition of the CH2 Cl2 was undertaken to obtain complete dissolution. The solution was placed in a […] and irradiated as described above. […] Thus, the use of different solvents will cause a variation in both the character and duration of fluorescence.
# In addition, a further test was conducted in order to determine the photostability of the product. Specifically, 2.0 mg of the product in a 100 ml round bottom flask was dissolved in 50 ml of H2 O. The solution was then irradiated by light from a 250 watt sun lamp placed approximately 8 inches from the flask. UV spectral data was recorded periodically as shown below in Table III.
# [4] = Solubility/fluorescence in various solvents (Tables I, II); type: physicochemical
# Protocol: In addition, tests were conducted on the product in order to determine its solubility/fluorescence in various solvents. One property of the compositions described herein involves a variable degree of solubility/fluorescence relative to the solvents with which they are combined. Data showing a variety of different solvents combined with the product of Example I is presented below in Table I:
# As in Example I, tests were conducted on the product in Example II in order to determine its fluorescence in various solvents. Data showing a variety of different solvents combined with the product of Example II is presented below in Table II: […]
# breast tumors = assay: Photodynamic therapy of DMBA-induced breast tumors, intratumor injection (Table VIII); type: in vivo, female Sprague Dawley rats; conditions: for COMPLETE RESPONSE (ANIMALS) / FINAL TOTAL TUMOR NO. / FINAL MEAN TUMOR VOLUME: four weeks
# Protocol: Breast tumors were induced in fifty-day-old female Sprague Dawley rats by the oral feeding of dimethylbenzanthracene (DMBA) in peanut oil. Individual rats were fed 10 mg DMBA per 100 g body weight via gavage tubes. Palpable tumors developed 45 to 92 days after feeding. […] Following tumor development, tumors were measured and injected with PMPDS-BF2 dissolved in saline ([…] was injected into the center of the tumors to a concentration of 20 μg/cm^3 of tumor volume. Twenty-four hours after intratumor injection, the rats were anesthetized using phenobarbital (2 mg/kg i.p.) and the injected tumors were exposed to light from either a quartz lamp (100 or 250 w) or an argon laser (with 488/514 and 628 nm frequencies) for 10-20 minutes. Also included in this experiment were three control groups: (1) saline injected, unirradiated tumors; (2) saline injected, irradiated tumors; (3) PMPDS-BF2 injected, and unirradiated tumors.
# [5] = Laser characteristics of pyrromethene-BF2 complexes under flashlamp excitation (Table IV); conditions: DMA/MeOH
smiles,measurement,setting,value
"CC1=C(S(=O)(=O)O)C(C)=[N+]2C1=C(C)c1c(C)c(S(=O)(=O)O)c(C)n1[B-]2(F)F [PMPDS-BF2, Disodium salt of 4,4-difluoro-1,3,5,7,8-pentamethyl-4-bora-3a,4a-diaza-s-indacene-2,6-disulfonic acid monohydrate]",T--T absorption,[1],barely detectable
same,T--T absorption ε.tau.,[1],~ 3×10^-3
same,solubility in the polymer matrix,[2],particularly soluble
same,ε492 (H2O),"[3]; 2.0 mg in 50 ml H2O, 0 hours","76,995.38"
same,ε492 (H2O),"[3]; H2O, 0.5 hours","76,755.22"
same,ε492 (H2O),"[3]; H2O, 1.0 hours","75,556.52"
same,ε492 (H2O),"[3]; H2O, 1.5 hours","76,755.52"
same,ε492 (H2O),"[3]; H2O, 2.5 hours","75,316.35"
same,ε492 (H2O),"[3]; H2O, 3.5 hours","73,757.26"
same,ε492 (H2O),"[3]; H2O, 6.0 hours","69,799.55"
same,ε492 (H2O),"[3]; H2O, 20.0 hours","52,049.62"
same,ε492 (H2O),"[3]; H2O, 21.5 hours","51,569.90"
same,ε492 (H2O),"[3]; H2O, 23.5 hours","46,173.05"
same,ε492 (H2O),"[3]; H2O, 25.5 hours","45,573.40"
same,ε492 (H2O),"[3]; H2O, 28.0 hours","41,016.06"
same,ε492 (H2O),"[3]; H2O, 30.5 hours","37,178.46"
same,ε492 (H2O),"[3]; H2O, 44.0 hours","20,388.19"
same,ε492 (H2O),"[3]; H2O, 50.0 hours","13,192.355"
same,ε492 (H2O),"[3]; H2O, 52.5 hours",599.653
same,Solubility,[4]; (CF3)2 CHOH,Insoluble
same,Solubility,[4]; CH2 Cl2,Insoluble
same,Solubility,[4]; CH3 CO2 C2 H5,Insoluble
same,Solubility,[4]; H2 O,Soluble
same,Solubility,[4]; O(CH2 CH2)2 O,Insoluble
same,COMPLETE RESPONSE (ANIMALS),"breast tumors; 20 ug/cm^3, no light",2/10
same,FINAL TOTAL TUMOR NO.,"breast tumors; 20 ug/cm^3, no light, initial 12",13
same,FINAL MEAN TUMOR VOLUME,"breast tumors; 20 ug/cm^3 intratumor plus light (quartz lamp 100 watt, 20 min), initial 0.3",0.1 cm^3
same,FINAL MEAN TUMOR VOLUME,"breast tumors; 20 ug/cm^3 intratumor, no light, initial 0.2",0.7 cm^3
same,COMPLETE RESPONSE (ANIMALS),breast tumors; 20 ug/cm^3 plus light,7/10
same,FINAL TOTAL TUMOR NO.,"breast tumors; 20 ug/cm^3 plus light, initial 14",3
same,tumor necrosis,breast tumors; injected and irradiated,Tumor necrosis was observed
same,tumor remission,breast tumors; injected and irradiated,50-100%
same,necrosis or remission,"breast tumors; injected, not irradiated",no necrosis or remission
same,Life,[5],very long
